Where a name gives a salt, the structure may show the parent alone.
Assay: Phase 1a study: pharmacokinetics after oral BID dosing in subjects with advanced solid tumors
Assay type: in vivo, human
Set-up: Increase in mean: scale not given here
Protocol: This example describes a first in human, Phase 1a, multi-center, open-label study to establish the maximum tolerated dose (MTD) and evaluate the safety and tolerability of oral dosing of Form A of the hemi-fumarate salt of the compound of formula (I) (Example 11) in a dose-escalating fashion. Form A of the hemi-fumarate salt was orally administered BID every day with food or within 30 minutes of completing a meal, starting at 25 mg, with doses escalating to 50, 100, 200, 400, 600, and 900 mg BID as safety allows for each 3-week treatment cycle.
Up to 36 qualified subjects at 3 to 5 US sites, who have specific tumor types of renal cell carcinoma (RCC), gastric cancer (GC), metastatic breast cancer (MBC), small cell lung cancer (SCLC), and other solid tumors (e.g., non-small cell lung cancer, colorectal cancer, carcinoma of unknown primary) with the exception of rapidly progressing neoplasms (e.g., pancreatic cancer, glioblastoma, hepatocellular carcinoma) received Form A of the hemi-fumarate salt. Every effort was made to ensure approximately 50% of all subjects enrolled were subjects with RCC and GC. The starting dose level was 25 mg twice daily (BID), escalating to 50, 100, and 200 mg BID as safety allows, following the Bayesian Optimal Interval (BOIN) design. The safety monitoring committee (SMC) evaluated the dose-limiting toxicities (DLTs) and cumulative safety and PK data at the end of each cohort. Based on the SMC recommendations after a comprehensive review of PK and safety data for 200 mg BID dose, higher dose levels were evaluated, starting with 400 mg BID. The dose escalated to 600 mg and then 900 mg following the BOIN design starting with 1 subject at each escalated dose, until the MTD was reached or the sponsor or SMC declares the dose most appropriate for clinical development. This Phase 1a will be expanded into a Phase 1b/2a study through a protocol amendment and will then assess the dose and tumor type(s) selected in Phase 1a as the most appropriate for further clinical development. Subjects were dosed until unacceptable toxicity, disease progression per immune-related Response Evaluation Criteria in Solid Tumors (iRECIST), subject withdrawal, any other administrative reasons, or after 2 years of treatment, whichever occurs first. Efficacy was assessed via Response Evaluation Criteria in Solid Tumors 1.1 (RECIST 1.1); computed tomography (CT) scans were conducted every 6 weeks. Safety, including occurrence of dose-limiting toxicities (DLTs), pharmacokinetics (PK), and biomarker parameters were also assessed.
Form A of the hemi-fumarate salt was orally administered BID with food or within 30 minutes of completing a meal, starting at 25 mg, with doses escalating to 50, 100, 200, 400, 600 and 900 mg BID as safety allowed. Up to 24 subjects were enrolled to ensure 12 subjects completed the study at the estimated MTD of Form A of the hemi-fumarate salt. Dosing occurred in 3-week cycles. Subjects spent Cycle 1/Day 1 (C1D1) in the clinic followed by an overnight stay for safety monitoring and PK sampling. Subjects were hospitalized for administration of first 3 doses: CID1 am and pm doses, and Cycle 1/Day 2 (C1D2) am dose; on Days 8, 15, and 21 the am dose was taken in the clinic after the planned PK samples. All other doses were self administered at home.
Results of Cohorts 1 to 6 the study are detailed in Tables 47-50 below.

[1] = 25 mg single oral dose, Cycle 1 Day 1, geometric mean, N = 3
[2] = 25 mg twice daily oral, Cycle 1 Day 21, geometric mean, N = 3
[3] = 50 mg single oral dose, Cycle 1 Day 1, geometric mean, N = 3
[4] = 50 mg twice daily oral, Cycle 1 Day 21, geometric mean, N = 3
[5] = 100 mg single oral dose, Cycle 1 Day 1, geometric mean, N = 4
[6] = 100 mg twice daily oral, Cycle 1 Day 21, geometric mean, N = 3
[7] = 200 mg single oral dose, Cycle 1 Day 1, geometric mean, N = 5
[8] = 200 mg twice daily oral, Cycle 1 Day 21, geometric mean, N = 4
[9] = 300 mg single oral dose, Cycle 1 Day 1, geometric mean, N = 4
[10] = 300 mg twice daily oral, Cycle 1 Day 21, point estimate, N = 1
[11] = 400 mg single oral dose, Cycle 1 Day 1, geometric mean, N = 3
[12] = 400 mg twice daily oral, Cycle 1 Day 21, geometric mean, N = 2
[13] = 600 mg single oral dose, Cycle 1 Day 1, point estimate, N = 1
[14] = 600 mg twice daily oral, Cycle 1 Day 21, point estimate, N = 1

For `Cc1cc(NC(=O)[C@H](O)c2cc(F)cc(F)c2)ccc1-c1cnc(N)c(C(=O)NC(C)C)c1` [Form A of the hemi-fumarate salt, (R)-2-amino-5-(4-(2-(3,5-difluorophenyl)-2-hydroxyacetamido)-2-methylphenyl)-N-isopropylnicotinamide], the “% AUCextrap” value [1] was 46.8%, the CL/F [1] was 11.4 L/h and the DAUC0-12 [1] was 34.0 ng·h/mL/mg. For the same compound, the DAUC0-last [1] was 34.0 ng·h/mL/mg, the DCmax [1] was 4.79 ng/mL/mg and the tlast (25 mg single oral dose, Cycle 1 Day 1, median, N = 3) was 12.00 h. For the same compound, the ARAUC [2] was 4.84, the CL/F [2] was 6.08 L/h and the Ctrough [2] was 359 ng/mL. For the same compound, the DAUC0-last [2] was 164 ng·h/mL/mg, the DAUC0-τ [2] was 164 ng·h/mL/mg and the DCmax [2] was 21.5 ng/mL/mg. The “% AUCextrap” value [3] was 51.8%, the CL/F [3] was 8.85 L/h and the DAUC0-12 [3] was 41.8 ng·h/mL/mg. For the same compound, the DAUC0-last [3] was 41.8 ng·h/mL/mg, the DCmax [3] was 4.87 ng/mL/mg and the tlast (50 mg single oral dose, Cycle 1 Day 1, median, N = 3) was 12.00 h. The ARAUC [4] was 4.34, the CL/F [4] was 5.51 L/h and the Ctrough [4] was 780 ng/mL. For the same compound, the DAUC0-last [4] was 181 ng·h/mL/mg, the DAUC0-τ [4] was 181 ng·h/mL/mg and the DCmax [4] was 19.6 ng/mL/mg. It also gave an Increase in mean (50 mg vs preceding dose level (25 mg), single oral dose, Cycle 1 Day 1) of 2.46, an Increase in mean (50 mg vs preceding dose level (25 mg), twice daily oral, Cycle 1 Day 21) of 2.21 and a DAUC0-12 [5] of 28.0 ng·h/mL/mg. It also gave a DAUC0-last [5] of 19.3 ng·h/mL/mg, a DCmax [5] of 3.80 ng/mL/mg and a tlast (100 mg single oral dose, Cycle 1 Day 1, median, N = 4) of 12.00 h. For the same compound, the ARAUC [6] was 4.19, the CL/F [6] was 8.53 L/h and the Ctrough [6] was 777 ng/mL. For the same compound, the DAUC0-last [6] was 117 ng·h/mL/mg, the DAUC0-τ [6] was 117 ng·h/mL/mg and the DCmax [6] was 13.1 ng/mL/mg. The Increase in mean (100 mg vs preceding dose level (50 mg), single oral dose, Cycle 1 Day 1) was 1.34, the Increase in mean (100 mg vs preceding dose level (50 mg), twice daily oral, Cycle 1 Day 21) was 1.29 and the “% AUCextrap” value [7] was 58.7%. The CL/F [7] was 11.1 L/h, the DAUC0-12 [7] was 29.0 ng·h/mL/mg and the DAUC0-last [7] was 29.0 ng·h/mL/mg. For the same compound, the DCmax [7] was 4.19 ng/mL/mg, the tlast (200 mg single oral dose, Cycle 1 Day 1, median, N = 5) was 12.00 h and the ARAUC [8] was 4.90. It also gave a CL/F [8] of 7.36 L/h, a Ctrough [8] of 1860 ng/mL and a DAUC0-last [8] of 136 ng·h/mL/mg. The DAUC0-τ [8] was 136 ng·h/mL/mg, the DCmax [8] was 14.9 ng/mL/mg and the Increase in mean (200 mg vs preceding dose level (100 mg), single oral dose, Cycle 1 Day 1) was 2.07. For the same compound, the Increase in mean (200 mg vs preceding dose level (100 mg), twice daily oral, Cycle 1 Day 21) was 2.32, the “% AUCextrap” value [9] was 30.5% and the CL/F [9] was 62.4 L/h. It also gave a DAUC0-12 [9] of 28.7 ng·h/mL/mg, a DAUC0-last [9] of 28.7 ng·h/mL/mg and a DCmax [9] of 3.80 ng/mL/mg. For the same compound, the tlast (300 mg single oral dose, Cycle 1 Day 1, median, N = 4) was 12.00 h, the ARAUC [10] was 2.87 and the CL/F [10] was 10.5 L/h. It also gave a Ctrough [10] of 1770 ng/mL, a DAUC0-last [10] of 94.8 ng·h/mL/mg and a DAUC0-τ [10] of 94.8 ng·h/mL/mg. The DCmax [10] was 10.1 ng/mL/mg, the Increase in mean (300 mg vs preceding dose level (200 mg), single oral dose, Cycle 1 Day 1) was 1.48 and the Increase in mean (300 mg vs preceding dose level (200 mg), twice daily oral, Cycle 1 Day 21) was 1.05. For the same compound, the “% AUCextrap” value [11] was 33.6%, the CL/F [11] was 24.5 L/h and the DAUC0-12 [11] was 9.58 ng·h/mL/mg. The DAUC0-last [11] was 9.58 ng·h/mL/mg, the DCmax [11] was 1.62 ng/mL/mg and the tlast (400 mg single oral dose, Cycle 1 Day 1, min-max, N = 3) was “(12.00-12.00) h”. For the same compound, the ARAUC [12] was 5.15, the CL/F [12] was 7.82 L/h and the Ctrough [12] was 3060 ng/mL. The DAUC0-last [12] was 77.0 ng·h/mL/mg, the DAUC0-τ [12] was 128 ng·h/mL/mg and the DCmax [12] was 9.20 ng/mL/mg. It also gave an Increase in mean (400 mg vs preceding dose level (300 mg), single oral dose, Cycle 1 Day 1) of 0.44, an Increase in mean (400 mg vs preceding dose level (300 mg), twice daily oral, Cycle 1 Day 21) of 1.80 and a DAUC0-12 [13] of 19.4 ng·h/mL/mg. For the same compound, the DAUC0-last [13] was 19.4 ng·h/mL/mg, the DCmax [13] was 2.43 ng/mL/mg and the tlast [13] was 12.00 h. For the same compound, the ARAUC [14] was 5.22, the CL/F [14] was 9.87 L/h and the Ctrough [14] was 5680 ng/mL. It also gave a DAUC0-last [14] of 101 ng·h/mL/mg, a DAUC0-τ [14] of 101 ng·h/mL/mg and a DCmax [14] of 9.98 ng/mL/mg.
